{"source": "ChEMBL document CHEMBL4665718", "about": "“Inhibitory effect of oolonghomobisflavan B on osteoclastogenesis by suppressing p38 MAPK activation” (Bioorg Med Chem Lett, 2020)", "key": {"BMDM [1]": {"test_system": "BMDM", "assay": "Modulation of NF-kappaB in Sprague-Dawley rat BMM assessed as inhibition of M-CSF/RANKL-induced osteoclast differentiation by measuring decrease in TRAP-positive multinucleated cells at 100 uM measured after 5 days by TRAP-staining based assay relative to control", "format": "tissue-based", "settings": "filed as modulator, time 5.0 day"}, "BMDM [2]": {"test_system": "BMDM", "assay": "Inhibition of M-CSF-induced ERK activation in BMM (unknown origin) at 5 uM pretreated for 1 hr followed by M-CSF stimulation for 5 to 30 mins by Western blot analysis", "format": "tissue-based"}, "BMDM [3]": {"test_system": "BMDM", "assay": "Inhibition of p38 MAPK in BMM (unknown origin) assessed as suppression of RANKL/M-CSF-induced CTSK upregulation at 5 uM measured after 3 days by Western blot analysis", "format": "tissue-based", "settings": "time 3.0 day"}, "BMDM [4]": {"test_system": "BMDM", "assay": "Inhibition of M-CSF-induced Akt activation in BMM (unknown origin) at 5 uM pretreated for 1 hr followed by M-CSF stimulation for 5 to 30 mins by Western blot analysis", "format": "tissue-based"}, "BMDM [5]": {"test_system": "BMDM", "assay": "Inhibition of RANKL-induced JNK activation in BMM (unknown origin) at 5 uM pretreated for 1 hr followed by RANKL stimulation for 5 to 15 mins by Western blot analysis", "format": "tissue-based"}, "[6]": {"molecular_target": "T1, NF-kappa-B inhibitor alpha (Homo sapiens) (UniProt P25963)", "T1 sequence (whole entry)": "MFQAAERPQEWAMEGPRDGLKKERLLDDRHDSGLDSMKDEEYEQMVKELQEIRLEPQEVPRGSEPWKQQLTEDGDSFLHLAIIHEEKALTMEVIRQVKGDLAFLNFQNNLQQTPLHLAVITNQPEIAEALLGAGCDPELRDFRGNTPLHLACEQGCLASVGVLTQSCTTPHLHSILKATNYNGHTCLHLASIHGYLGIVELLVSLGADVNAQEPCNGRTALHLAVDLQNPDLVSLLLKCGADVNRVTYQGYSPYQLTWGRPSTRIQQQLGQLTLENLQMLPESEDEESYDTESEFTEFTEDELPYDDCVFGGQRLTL", "assay": "Inhibition of RANKL-induced IkappaB-alpha activation in BMM (unknown origin) at 5 uM pretreated for 1 hr followed by RANKL stimulation for 5 to 15 mins by Western blot analysis", "format": "tissue-based"}, "BMDM [7]": {"test_system": "BMDM", "assay": "Inhibition of RANKL-induced Akt activation in BMM (unknown origin) at 5 uM pretreated for 1 hr followed by RANKL stimulation for 5 to 15 mins by Western blot analysis", "format": "tissue-based"}, "BMDM [8]": {"test_system": "BMDM", "assay": "Inhibition of RANKL-induced ERK activation in BMM (unknown origin) at 5 uM pretreated for 1 hr followed by RANKL stimulation for 5 to 15 mins by Western blot analysis", "format": "tissue-based"}, "BMDM [9]": {"test_system": "BMDM", "assay": "Inhibition of RANKL-induced p38 activation in BMM (unknown origin) at 5 uM pretreated for 1 hr followed by RANKL stimulation for 5 to 15 mins by Western blot analysis", "format": "tissue-based"}, "BMDM [10]": {"test_system": "BMDM", "assay": "Inhibition of p38 MAPK in BMM (unknown origin) assessed as suppression of RANKL/M-CSF-induced actin ring formation at 5 uM incubated for 4 days by rhodamine phallodin/DAPI staining based analysis", "settings": "time 4.0 day"}, "BMDM [11]": {"test_system": "BMDM", "assay": "Inhibition of p38 MAPK in BMM (unknown origin) assessed as suppression of RANKL/M-CSF-induced Nftac1 gene upregulation at 5 uM measured after 3 days by RT-PCR analysis", "format": "tissue-based", "settings": "time 3.0 day"}, "BMDM [12]": {"test_system": "BMDM", "assay": "Inhibition of p38 MAPK in BMM (unknown origin) assessed as suppression of RANKL/M-CSF-induced Acp5 gene upregulation at 5 uM measured after 3 days by RT-PCR analysis", "format": "tissue-based", "settings": "time 3.0 day"}, "BMDM [13]": {"test_system": "BMDM", "assay": "Inhibition of p38 MAPK in BMM (unknown origin) assessed as suppression of RANKL/M-CSF-induced CTSK gene upregulation at 5 uM measured after 3 days by RT-PCR analysis", "format": "tissue-based", "settings": "time 3.0 day"}, "BMDM [14]": {"test_system": "BMDM", "assay": "Inhibition of p38 MAPK in BMM (unknown origin) assessed as suppression of RANKL/M-CSF-induced DCSTAMP gene upregulation at 5 uM measured after 3 days by RT-PCR analysis", "format": "tissue-based", "settings": "time 3.0 day"}, "BMDM [15]": {"test_system": "BMDM", "assay": "Inhibition of p38 MAPK in BMM (unknown origin) assessed as suppression of RANKL/M-CSF-induced MMP9 gene upregulation at 5 uM measured after 3 days by RT-PCR analysis", "format": "tissue-based", "settings": "time 3.0 day"}, "BMDM [16]": {"test_system": "BMDM", "assay": "Inhibition of p38 MAPK in BMM (unknown origin) assessed as suppression of RANKL/M-CSF-induced Nftac1 upregulation at 5 uM measured after 3 days by Western blot analysis", "format": "tissue-based", "settings": "time 3.0 day"}, "BMDM [17]": {"test_system": "BMDM", "assay": "Inhibition of p38 MAPK in BMM (unknown origin) assessed as inhibition of RANKL/M-CSF-induced osteoclast differentiation by measuring reduction in TRAP-positive multinucleated cells at 5 uM treated on day 0-4 by TRAP staining based assay", "settings": "time 4.0 day"}, "BMDM [18]": {"test_system": "BMDM", "assay": "Inhibition of p38 MAPK in BMM (unknown origin) assessed as inhibition of RANKL/M-CSF-induced osteoclast differentiation by measuring reduction in TRAP-positive multinucleated cells at 5 uM treated on day 2-4 by TRAP staining based assay relative to control", "settings": "time 3.0 day"}, "[19]": {"assay": "Cytotoxicity against BMM (unknown origin) assessed as reduction in cell viability at 5 uM after 3 days in presence of M-CSF by MTT assay", "format": "tissue-based", "settings": "bmdm, 72 h, time 3 day"}, "BMDM [20]": {"test_system": "BMDM", "assay": "Inhibition of p38 MAPK in BMM (unknown origin) assessed as inhibition of RANKL/M-CSF-induced osteoclast differentiation by measuring reduction in TRAP-positive multinucleated cells at 5 uM treated on day 0-2 by TRAP staining based assay relative to control", "format": "tissue-based", "settings": "time 2.0 day"}, "BMDM [21]": {"test_system": "BMDM", "assay": "Inhibition of p38 MAPK in BMM (unknown origin) assessed as inhibition of M-CSF/RANKL-induced osteoclastogenesis by measuring reduction in multinucleated TRAP+ cells at 5 uM measured after 4 days by TRAP-staining based analysis relative to control", "format": "cell-based", "settings": "time 4.0 day"}, "BMDM [22]": {"test_system": "BMDM", "assay": "Inhibition of p38 MAPK in BMM (unknown origin) assessed as inhibition of M-CSF/RANKL-induced osteoclastogenesis by measuring reduction in multinucleated TRAP+ cells measured after 4 days by TRAP-staining based analysis", "format": "cell-based", "settings": "dose microM 1-5, time 4.0 day"}}, "note": "Activity calls are given as the source filed them. The rule behind the calls is not given here.", "data": [{"smiles": "O=C(O[C@@H]1Cc2c(O)cc(O)cc2O[C@@H]1c1cc(O)c(O)c(O)c1)c1cc(O)c(O)c(O)c1", "values": [{"measurement": "inhibition", "setting": "BMDM [1]", "result": 92, "unit": "%"}]}, {"smiles": "O=C(O[C@@H]1Cc2c(cc(O)c(Cc3c(O)cc(O)c4c3O[C@H](c3cc(O)c(O)c(O)c3)[C@H](OC(=O)c3cc(O)c(O)c(O)c3)C4)c2O)O[C@@H]1c1cc(O)c(O)c(O)c1)c1cc(O)c(O)c(O)c1", "values": [{"measurement": "inhibition", "setting": "BMDM [2]", "result": "inactive"}, {"measurement": "inhibition", "setting": "BMDM [3]", "result": "Active"}, {"measurement": "inhibition", "setting": "BMDM [4]", "result": "inactive"}, {"measurement": "inhibition", "setting": "BMDM [5]", "result": "inactive"}, {"measurement": "inhibition", "setting": "[6]", "result": "inactive"}, {"measurement": "inhibition", "setting": "BMDM [7]", "result": "inactive"}, {"measurement": "inhibition", "setting": "BMDM [8]", "result": "inactive"}, {"measurement": "inhibition", "setting": "BMDM [9]", "result": "Active"}, {"measurement": "inhibition", "setting": "BMDM [10]", "result": "Active"}, {"measurement": "inhibition", "setting": "BMDM [11]", "result": "Active"}, {"measurement": "inhibition", "setting": "BMDM [12]", "result": "Active"}, {"measurement": "inhibition", "setting": "BMDM [13]", "result": "Active"}, {"measurement": "inhibition", "setting": "BMDM [14]", "result": "Active"}, {"measurement": "inhibition", "setting": "BMDM [15]", "result": "Active"}, {"measurement": "inhibition", "setting": "BMDM [16]", "result": "Active"}, {"measurement": "inhibition", "setting": "BMDM [17]", "result": "Active"}, {"measurement": "inhibition", "setting": "BMDM [18]", "result": 34.5, "unit": "%"}, {"measurement": "Activity", "setting": "[19]", "result": "Non-Toxic"}, {"measurement": "inhibition", "setting": "BMDM [20]", "result": 95.9, "unit": "%"}, {"measurement": "inhibition", "setting": "BMDM [21]", "result": 98.1, "unit": "%"}, {"measurement": "inhibition", "setting": "BMDM [22]", "result": "Dose-dependent effect"}]}]}
